From patent US8716295B2, “Fluoroquinolone derivatives or sulfonamide moiety-containing compounds as inhibitors of tyrosyl-dnaphosphodiesterase (TDP1)” (priority 2010, dated 2014)
Entries after “also recorded” stand apart in the source; their conditions may differ. Read-outs that look alike come from different tables or passages of the source.

Key:
[1] = target: recombinant Tdp1 (Homo sapiens, UniProt Q9NUW8); experiment: Gel-based Tdp1 catalytic activity inhibition assay (5'-32P-labeled N14Y DNA substrate, denaturing PAGE); type: biochemical; details: for IC50: 0.2 nmol/L recombinant Tdp1, 1 nmol/L N14Y substrate, 15 min, room temperature
Description: 5′-^32P-labeled DNA substrate (1 nmol/L; N14Y; 5′-[…]-pY-3′) was incubated with 0.2 nmol/L recombinant Tdp1 in the absence or presence of inhibitor for 15 min at room temperature in an assay buffer containing 1×PBS, pH 7.4, 80 mmol/L KCl and 0.01% Tween-20. Reactions were terminated by the addition of 1 volume of gel loading buffer [99.5% (v/v) formamide, 5 mmol/L EDTA, 0.01% (w/v) xylene cyanol, and 0.01% (w/v) bromophenol blue]. Samples were subjected to a 16% denaturing PAGE and gels were exposed after drying to a PhosphorImager screen (GE Healthcare). Gel images were scanned using a Typhoon 8600 (GE Healthcare) and densitometric analyses were performed using the ImageQuant software package (GE Healthcare).

[2] = tested on: human osteosarcoma U2OS cells; experiment: Cytotoxicity/proliferation (MTS) assay for synergy with camptothecin; type: cell-based; details: 72 hours, NF-SDM at 3, 6 and 12 μM
Description: U2OS cells (Developmental Therapeutics Program, NCI) were plated at 3×10^3 cells in a total volume of 100 μl per well in a 96 well plate and incubated at 37° C./5% CO2 for 24 hours prior to drug treatment. CPT and another drug of interest (both in DMSO stock solution) were prepared at double the desired concentration, and serially diluted in cells' media. After medium was aspirated off cells, 50 μl of CPT was plated down each column at four-fold dilutions in subsequent columns and 50 μl of another drug of interest was plated across rows, at two-fold dilutions in subsequent rows. A single drug dose response was also included for each drug tested, to which 50 μl of regular media was added to reconstitute a final volume of 100 μl in each well. Plates were further incubated for 72 hours and proliferation was assayed by adding 20 μl of 3-(4,5-dimethylthiazol-2-yl)-5-(3 carboxymethoxyphenyl)-2-(4-sulfophenyl)-2H-tetrazolium (MTS) Cell Titer Reagent (Promega) to each well. Plates were lightly mixed and placed back into the incubator until the appropriate color change occurred (˜1 hr), at which point plates were read on a Molecular Device Gemini fluorescence plate reader at an absorbance of 490 nm for cell viability. Raw data were plotted using GraphPad Prism and compared to each sample's control (GraphPad Software Inc.).

[3] = read-out: unable to inhibit Tdp1 / inactive at concentrations up to

recombinant Tdp1, sequence (Q9NUW8 whole entry): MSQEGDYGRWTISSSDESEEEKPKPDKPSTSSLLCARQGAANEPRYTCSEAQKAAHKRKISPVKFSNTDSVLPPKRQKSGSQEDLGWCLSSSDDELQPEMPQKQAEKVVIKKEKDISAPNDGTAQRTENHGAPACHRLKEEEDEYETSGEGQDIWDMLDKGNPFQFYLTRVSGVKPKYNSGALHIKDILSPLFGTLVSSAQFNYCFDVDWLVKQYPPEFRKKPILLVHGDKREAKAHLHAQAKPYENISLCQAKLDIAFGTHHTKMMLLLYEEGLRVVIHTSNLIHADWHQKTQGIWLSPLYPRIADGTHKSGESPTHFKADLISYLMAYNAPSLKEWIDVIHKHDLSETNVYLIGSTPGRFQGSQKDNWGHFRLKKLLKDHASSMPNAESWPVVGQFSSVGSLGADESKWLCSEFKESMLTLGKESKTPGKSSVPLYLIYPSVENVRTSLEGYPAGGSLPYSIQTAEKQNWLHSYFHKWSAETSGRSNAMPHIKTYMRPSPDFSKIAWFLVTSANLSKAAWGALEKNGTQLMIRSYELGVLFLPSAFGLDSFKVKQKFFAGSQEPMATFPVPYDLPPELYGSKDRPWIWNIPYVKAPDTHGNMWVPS

Compound	Tdp1 inhibitory activity (in words) [1]	IC50 ([1]; read-out: inhibit Tdp1 catalytic activity (IC50 Tdp1 inhibition)) [µM]	synergy with the TopI poison camptothecin (CPT) on cell growth/viability [2]	IC50 [1, 3] [µM]
CCn1cc(C(=O)O)c(=O)c2cc(F)c(N3CCN(CNc4ccc(S(=O)(=O)Nc5nc(C)cc(C)n5)cc4)CC3)cc21 [NF-SDM]	nanomolar range	0.005	synergize with CPT; also recorded: synergistic effect; also recorded: acts synergistically	–
COc1c(N2CCNC(C)C2)c(F)cc2c(=O)c(C(=O)O)cn(C3CC3)c12 (stereo not shown) [gatifloxacin]	–	–	–	> 333
CCn1cc(C(=O)O)c(=O)c2cc(F)c(N3CCNCC3)cc21 [norfloxacin]	–	–	–	> 333
Cc1cc(C)nc(NS(=O)(=O)c2ccc(N)cc2)n1 [sulfadimidine]	does not inhibit Tdp1	–	–	> 333
